Measurements published in patent US12257287B2, “Glucagon-derived peptide and use thereof” (Tianjin Institute of Pharmaceutical Research Co., Ltd., priority 2018, dated 2025).
≈ marks a conversion by molar mass, not a printed value. Numbered stars: 1 amine (or outer) side, 2 acyl side, 3 side chain; on linkers, the order of the positions; unused ones are H or OH. Square brackets hold non-standard residues; d marks the D form. Side chains are listed from the residue outwards. Peptide text beside a SMILES is read from it. * marks the point of attachment. C20 diacid = O=C(O)CCCCCCCCCCCCCCCCCCC(=O)*; C18 diacid = O=C(O)CCCCCCCCCCCCCCCCC(=O)*; γGlu = O=C(O)[C@H](CCC(=O)[*:2])N[*:1]; AEEA = NCCOCCOCC(=O)O; Aib = CC(C)(N)C(=O)O

What was measured:
[1] = Accelerated chemical stability in injection solvent system (HPLC-UV); format: physicochemical; conditions: 14 days, phosphate buffer pH 7.3 with Tween 80 and phenol, main peak area vs day 0
Protocol: The chemical stability of the compounds of the present invention in injection solution systems was evaluated by an accelerated stability test. Methods: an appropriate amount of compound of Example 1 was weighed, and dissolved in 10 mM pH8.5 sodium hydrogen phosphate buffer. The final pH value of the solution was adjusted to 7.3 with 0.1 N hydrochloric acid, and proper amounts of Tween 80 and phenol were added. The mixture was placed at 10° C. and 37° C. for 14 days, and detected by HPLC-UV. The main peak area was obtained by peak area normalization method, and the changes compared with day 0 were investigated. The HPLC detection method was the same as that in Example 6, and the mobile phase gradient was appropriately adjusted according to the situation of chromatographic peak separation.

[2] = biological target: T1, GC receptor (Homo sapiens, UniProt P47871); test: GC receptor mediated cAMP production in vitro (HEK293 cells transfected with GC receptor); format: cell-based; conditions: 20 min at 37° C., read-out: GCGR (nM EC50)
T1 construct: expressed in transfected cells; host or cells: HEK293 cells
T1 sequence (P47871 26-477): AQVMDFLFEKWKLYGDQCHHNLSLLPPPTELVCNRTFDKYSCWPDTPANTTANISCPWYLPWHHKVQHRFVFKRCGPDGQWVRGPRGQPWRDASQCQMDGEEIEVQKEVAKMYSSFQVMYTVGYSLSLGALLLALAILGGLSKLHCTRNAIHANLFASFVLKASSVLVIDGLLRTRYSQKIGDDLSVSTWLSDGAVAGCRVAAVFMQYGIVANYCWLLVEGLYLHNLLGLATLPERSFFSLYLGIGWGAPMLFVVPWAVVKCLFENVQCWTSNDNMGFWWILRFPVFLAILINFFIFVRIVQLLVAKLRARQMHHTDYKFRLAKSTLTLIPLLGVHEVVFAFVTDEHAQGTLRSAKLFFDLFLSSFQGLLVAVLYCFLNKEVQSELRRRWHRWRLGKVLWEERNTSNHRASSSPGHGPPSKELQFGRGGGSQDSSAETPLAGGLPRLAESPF
Excerpt: The medium was removed, the cells were lysed, and cAMP values were detected referring to the detection method described for the assay kit.

[3] = physchem; format: physicochemical
[4] = Short-term administration: food intake and body weight in DIO mice; format: in vivo; conditions: 30 nmol/kg once every 24 h, twice, − decrease; for Rate of change in food intake (%): at 48 hours vs day before administration; for Body weight change: at 48 hours
Protocol: Method: diet-induced obese mice (DIO) with an average body weight of 52.5 g were divided into model control and test groups, 5 mice in each group. The test samples were dissolved in 10 mM PBS of pH7.4, injected once every 24 h at a dose of 30 nmol/kg, and administered twice. The model group was injected with solvent. Changes in food intake and body weight at 48 hours were measured, and the change rates were calculated compared to the day before administration.

[5] = pH 7.5, Solubility, pH 7.5, 10 mM phosphate buffer
[6] = pH 7.5, Solubility, pH 7.5, 20 mM phosphate buffer
[7] = pH 8, Solubility, pH 8.0, 10 mM phosphate buffer
[8] = pH 8, Solubility, pH 8.0, 20 mM phosphate buffer
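Wherever Solubility is given: compound added at 2 mg per mL of phosphate buffer, with the dissolved amount determined in the supernatant.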

Change in purity % (10° C.) ([1]; 10° C.) [%]	Change in purity % (37° C.) ([1]; 37° C.) [%]	EC50 [2] [nM]	solubility [3, 5] [µg/mL]	solubility [3, 6] [µg/mL]	solubility [3, 7] [µg/mL]	solubility [3, 8] [µg/mL]	SMILES	Rate of change in food intake (%) [4] [%]	Body weight change [4] [g]
–	–	0.156	1170 (≈ 276 µM)	850 (≈ 200 µM)	1630 (≈ 384 µM)	1590 (≈ 375 µM)	CCCCCCCCCCCCCCCC(=O)N[C@@H](CCC(=O)N[C@@H](CCC(=O)NCCCC[C@H](NC(=O)[C@H](C)NC(=O)[C@H](CCCCN)NC(=O)[C@H](CCCNC(=N)N)NC(=O)[C@H](CCC(=O)O)NC(=O)[C@H](CCC(=O)O)NC(=O)[C@H](CC(C)C)NC(=O)[C@H](Cc1ccc(O)cc1)NC(=O)[C@H](CCCCN)NC(=O)[C@H](CO)NC(=O)[C@H](Cc1ccc(O)cc1)NC(=O)[C@H](CC(=O)O)NC(=O)[C@H](CO)NC(=O)[C@@H](NC(=O)[C@H](Cc1ccccc1)NC(=O)[C@@H](NC(=O)CNC(=O)[C@H](CCC(N)=O)NC(=O)C(C)(C)NC(=O)[C@@H](N)Cc1c[nH]cn1)[C@@H](C)O)[C@@H](C)O)C(=O)N[C@@H](CCC(=O)O)C(=O)N[C@@H](Cc1ccccc1)C(=O)N[C@H](C(=O)N[C@@H](CCC(=O)O)C(=O)N[C@@H](Cc1c[nH]c2ccccc12)C(=O)N[C@@H](CC(C)C)C(=O)N[C@@H](CCC(=O)O)C(=O)NCC(=O)NCC(=O)N1CCC[C@H]1C(=O)N[C@@H](CO)C(=O)N[C@@H](CO)C(=O)NCC(N)=O)C(C)C)C(=O)O)C(=O)O [Compound 62] (HELM PEPTIDE1{H.[Aib].Q.G.T.F.T.S.D.Y.S.K.Y.L.E.E.R.K.A.K.E.F.V.E.W.L.E.G.G.P.S.S.G.[am]}|PEPTIDE2{[CCCCCCCCCCCCCCCC(=O)[*:2]].[gGlu].[gGlu]}$PEPTIDE1,PEPTIDE2,20:R3-3:R2$$$V2.0; N-terminus assumed)	–	–
–	–	0.261	> 2000	> 2000	–	–	CCCCCCCCCCCCCCCC(=O)N[C@@H](CCC(=O)N[C@@H](CCC(=O)NCCCC[C@H](NC(=O)[C@H](C)NC(=O)[C@H](CCCCN)NC(=O)[C@H](CCCNC(=N)N)NC(=O)[C@H](CCC(=O)O)NC(=O)[C@H](CC(=O)O)NC(=O)[C@H](CC(C)C)NC(=O)[C@H](Cc1ccc(O)cc1)NC(=O)[C@H](CCCCN)NC(=O)[C@H](CO)NC(=O)[C@H](Cc1ccc(O)cc1)NC(=O)[C@H](CC(=O)O)NC(=O)[C@H](CO)NC(=O)[C@@H](NC(=O)[C@H](Cc1ccccc1)NC(=O)[C@@H](NC(=O)CNC(=O)[C@H](CCC(N)=O)NC(=O)C(C)(C)NC(=O)[C@@H](N)Cc1c[nH]cn1)[C@@H](C)O)[C@@H](C)O)C(=O)N[C@@H](CCC(=O)O)C(=O)N[C@@H](Cc1ccccc1)C(=O)N[C@H](C(=O)N[C@@H](CCC(=O)O)C(=O)N[C@@H](Cc1c[nH]c2ccccc12)C(=O)N[C@@H](CC(C)C)C(=O)N[C@@H](CCC(=O)O)C(=O)NCC(=O)NCC(=O)N1CCC[C@H]1C(=O)N[C@@H](CO)C(=O)N[C@@H](CO)C(=O)NCC(N)=O)C(C)C)C(=O)O)C(=O)O [Compound 69] (HELM PEPTIDE1{H.[Aib].Q.G.T.F.T.S.D.Y.S.K.Y.L.D.E.R.K.A.K.E.F.V.E.W.L.E.G.G.P.S.S.G.[am]}|PEPTIDE2{[CCCCCCCCCCCCCCCC(=O)[*:2]].[gGlu].[gGlu]}$PEPTIDE1,PEPTIDE2,20:R3-3:R2$$$V2.0; N-terminus assumed)	–	–

Continued, compound first:

SMILES	Change in purity % (10° C.) ([1]; 10° C.) [%]	Change in purity % (37° C.) ([1]; 37° C.) [%]	EC50 [2] [nM]	solubility [3, 5] [µg/mL]	solubility [3, 6] [µg/mL]	solubility [3, 7] [µg/mL]	solubility [3, 8] [µg/mL]	Rate of change in food intake (%) [4] [%]	Body weight change [4] [g]
CC(C)C[C@H](NC(=O)[C@H](Cc1c[nH]c2ccccc12)NC(=O)[C@H](C)NC(=O)[C@@H](NC(=O)[C@H](Cc1ccccc1)NC(=O)[C@H](CCC(=O)O)NC(=O)[C@H](CCCCN)NC(=O)[C@H](C)NC(=O)[C@H](C)NC(=O)[C@H](CCCNC(=N)N)NC(=O)[C@H](CCC(=O)O)NC(=O)[C@H](CC(=O)O)NC(=O)[C@H](CC(C)C)NC(=O)[C@H](Cc1ccc(O)cc1)NC(=O)[C@H](CCCCN)NC(=O)[C@H](CO)NC(=O)[C@H](CCCCNC(=O)COCCOCCNC(=O)COCCOCCNC(=O)CC[C@H](NC(=O)CCCCCCCCCCCCCCCCCCC(=O)O)C(=O)O)NC(=O)[C@H](CC(=O)O)NC(=O)[C@H](CO)NC(=O)[C@@H](NC(=O)[C@H](Cc1ccccc1)NC(=O)[C@@H](NC(=O)CNC(=O)[C@H](CCC(N)=O)NC(=O)C(C)(C)NC(=O)[C@@H](N)Cc1c[nH]cn1)[C@@H](C)O)[C@@H](C)O)C(C)C)C(=O)N[C@@H](CCC(=O)O)C(=O)N[C@@H](C)C(=O)NCC(=O)NCC(=O)N1CCC[C@H]1C(=O)N[C@@H](CO)C(=O)N[C@@H](CO)C(=O)NCC(N)=O [Compound 13] (H-H[Aib]QGTFTSDK([AEEA-AEEA-γGlu-C20 diacid])SKYLDERAAKEFVAWLEAGGPSSG-NH2; N-terminus assumed)	−2.8	−6.9	0.033	> 2000	> 2000	–	–	−67	-2.3
CC[C@H](C)[C@H](NC(=O)[C@H](Cc1ccccc1)NC(=O)[C@H](CCC(=O)O)NC(=O)[C@H](CCCCNC(=O)COCCOCCNC(=O)COCCOCCNC(=O)CC[C@H](NC(=O)CCCCCCCCCCCCCCCCC(=O)O)C(=O)O)NC(=O)[C@H](C)NC(=O)[C@H](C)NC(=O)[C@H](CCCNC(=N)N)NC(=O)[C@H](CCC(=O)O)NC(=O)[C@H](CCC(=O)O)NC(=O)[C@H](CC(C)C)NC(=O)[C@H](Cc1ccc(O)cc1)NC(=O)[C@H](CCCCN)NC(=O)[C@H](CO)NC(=O)[C@H](Cc1ccc(O)cc1)NC(=O)[C@H](CC(=O)O)NC(=O)[C@H](CO)NC(=O)[C@@H](NC(=O)[C@H](Cc1ccccc1)NC(=O)[C@@H](NC(=O)CNC(=O)[C@H](CCC(N)=O)NC(=O)C(C)(C)NC(=O)[C@@H](N)Cc1c[nH]cn1)[C@@H](C)O)[C@@H](C)O)C(=O)N[C@@H](C)C(=O)N[C@@H](Cc1c[nH]c2ccccc12)C(=O)N[C@@H](CC(C)C)C(=O)N[C@@H](CCC(=O)O)C(=O)N[C@@H](C)C(=O)NCC(=O)NCC(=O)N1CCC[C@H]1C(=O)N[C@@H](CO)C(=O)N[C@@H](CO)C(=O)NCC(N)=O [Compound 28] (H-H[Aib]QGTFTSDYSKYLEERAAK([AEEA-AEEA-γGlu-C18 diacid])EFIAWLEAGGPSSG-NH2; N-terminus assumed)	–	–	0.026	–	–	–	–	−49	-1.3
CC[C@H](C)[C@H](NC(=O)[C@H](Cc1ccccc1)NC(=O)[C@H](CCC(=O)O)NC(=O)[C@H](CCCCN)NC(=O)[C@H](C)NC(=O)[C@H](C)NC(=O)[C@H](CCCNC(=N)N)NC(=O)[C@H](CCC(=O)O)NC(=O)[C@H](CC(=O)O)NC(=O)[C@H](CC(C)C)NC(=O)[C@H](Cc1ccc(O)cc1)NC(=O)[C@H](CCCCN)NC(=O)[C@H](CO)NC(=O)[C@H](CCCCNC(=O)COCCOCCNC(=O)COCCOCCNC(=O)CC[C@H](NC(=O)CCCCCCCCCCCCCCCCC(=O)O)C(=O)O)NC(=O)[C@H](CC(=O)O)NC(=O)[C@H](CO)NC(=O)[C@@H](NC(=O)[C@H](Cc1ccccc1)NC(=O)[C@@H](NC(=O)CNC(=O)[C@H](CCC(N)=O)NC(=O)[C@H](CO)NC(=O)[C@@H](N)Cc1c[nH]cn1)[C@@H](C)O)[C@@H](C)O)C(=O)N[C@@H](C)C(=O)N[C@@H](Cc1c[nH]c2ccccc12)C(=O)N[C@@H](CC(C)C)C(=O)N[C@@H](CCC(=O)O)C(=O)N[C@@H](C)C(=O)NCC(=O)NCC(=O)N1CCC[C@H]1C(=O)N[C@@H](CO)C(=O)N[C@@H](CO)C(=O)NCC(N)=O [Compound 36] (H-HSQGTFTSDK([AEEA-AEEA-γGlu-C18 diacid])SKYLDERAAKEFIAWLEAGGPSSG-NH2; N-terminus assumed)	–	–	0.069	–	–	–	–	−46	-1.7
CC(C)C[C@H](NC(=O)[C@H](Cc1c[nH]c2ccccc12)NC(=O)[C@H](CCC(=O)O)NC(=O)[C@@H](NC(=O)[C@H](Cc1ccccc1)NC(=O)[C@H](CCC(=O)O)NC(=O)[C@H](CCCCNC(=O)COCCOCCNC(=O)COCCOCCNC(=O)CC[C@H](NC(=O)CCCCCCCCCCCCCCCCC(=O)O)C(=O)O)NC(=O)[C@H](C)NC(=O)[C@H](CCCCN)NC(=O)[C@H](CCCNC(=N)N)NC(=O)[C@H](CCC(=O)O)NC(=O)[C@H](CC(=O)O)NC(=O)[C@H](CC(C)C)NC(=O)[C@H](Cc1ccc(O)cc1)NC(=O)[C@H](CCCCN)NC(=O)[C@H](CO)NC(=O)[C@H](Cc1ccc(O)cc1)NC(=O)[C@H](CC(=O)O)NC(=O)[C@H](CO)NC(=O)[C@@H](NC(=O)[C@H](Cc1ccccc1)NC(=O)[C@@H](NC(=O)CNC(=O)[C@H](CCC(N)=O)NC(=O)C(C)(C)NC(=O)[C@@H](N)Cc1c[nH]cn1)[C@@H](C)O)[C@@H](C)O)C(C)C)C(=O)N[C@@H](CCC(=O)O)C(=O)N[C@@H](C)C(=O)NCC(=O)NCC(=O)N1CCC[C@H]1C(=O)N[C@@H](CO)C(=O)N[C@@H](CO)C(=O)NCC(N)=O [Compound 42] (H-H[Aib]QGTFTSDYSKYLDERKAK([AEEA-AEEA-γGlu-C18 diacid])EFVEWLEAGGPSSG-NH2; N-terminus assumed)	–	–	0.024	1720 (≈ 380 µM)	1510 (≈ 334 µM)	> 2000	> 2000	–	–
